Results published in publication PMC11971462, “Generation and validation of a novel multitarget small molecule in glioblastoma” (Cell Death & Disease, 2025).

Test system: GNS166 cells

C#CCN(Cc1cc2cc(OCCCN3CCCCC3)ccc2n1S(=O)(=O)c1ccccc1)C(=O)CCCCCCC(=O)NO [DDI]
FBXO2 log2FoldChange: 2.58
FGF13 log2FoldChange: 3.276
FIBIN log2FoldChange: 2.106
FKBP1B log2FoldChange: 2.251
FOLR1 log2FoldChange: 2.626
FOXO6 log2FoldChange: 2.278
FRK log2FoldChange: 2.849
FSTL5 log2FoldChange: 5.479
FXYD6 log2FoldChange: 4.385
GABRB1 log2FoldChange: 3.597
GABRD log2FoldChange: 5.7221
GABRQ log2FoldChange: 7.349
GALNT6 log2FoldChange: 2.317
GDPD1 log2FoldChange: 2.176
GFY log2FoldChange: 3.527
GLB1L2 log2FoldChange: 6.148
GNG4 log2FoldChange: 2.04
GNG8 log2FoldChange: 3.102
GPC3 log2FoldChange: 3.37
GPC5 log2FoldChange: 2.595
GRB14 log2FoldChange: 2.215
GRHL3 log2FoldChange: 2.762
GRIA2 log2FoldChange: 4.688
GRIA4 log2FoldChange: 3.3
GRID2IP log2FoldChange: 3.773
GRIN3B log2FoldChange: 5.631
GSTO2 log2FoldChange: 2.18
HAND1 log2FoldChange: 4.809
HAPLN3 log2FoldChange: 2.0919
HBA1 log2FoldChange: 5.471
HBA2 log2FoldChange: 4.292
HEPHL1 log2FoldChange: 2.403
HGF log2FoldChange: 3.276
HHIP log2FoldChange: 3.119
HIF3A log2FoldChange: 5.349
HLA-DMB log2FoldChange: 2.342
HMCN2 log2FoldChange: 3.444
HOATZ log2FoldChange: 4.467
HOXA13 log2FoldChange: 2.2385
HPCAL4 log2FoldChange: 5.769
HSPA2 log2FoldChange: 3.557
HTR6 log2FoldChange: 3.33
ID4 log2FoldChange: 2.033
IER3 log2FoldChange: 2.061
IFITM10 log2FoldChange: 2.3164
IGFBP3 log2FoldChange: 2.818
IGFN1 log2FoldChange: 4.535
IGLON5 log2FoldChange: 3.821
IGSF1 log2FoldChange: 6.9503
IGSF9 log2FoldChange: 5.356
IGSF11 log2FoldChange: 3.128
IL1A log2FoldChange: 2.307
IL18R1 log2FoldChange: 2.881
IL21R log2FoldChange: 5.107
INSRR log2FoldChange: 3.812
INSYN1 log2FoldChange: 2.89
ITGAX log2FoldChange: 6.404
ITIH5 log2FoldChange: 7.18
JAK3 log2FoldChange: 3.281
JAKMIP1 log2FoldChange: 6.861
JPH3 log2FoldChange: 7.177
JPH4 log2FoldChange: 6.374
KCNH7 log2FoldChange: 3.228
KCNK3 log2FoldChange: 2.911
KCNN1 log2FoldChange: 6.119
KCNN3 log2FoldChange: 2.959
KCNQ2 log2FoldChange: 7.079
KCNQ3 log2FoldChange: 6.35
KCNU1 log2FoldChange: 3.505
KDR log2FoldChange: 2.185
KIAA1755 log2FoldChange: 3.46
KIF26A log2FoldChange: 3.322
KIRREL2 log2FoldChange: 3.351
KISS1R log2FoldChange: 5.189
KLRG1 log2FoldChange: 3.015
KNDC1 log2FoldChange: 5.452
KRT81 log2FoldChange: 2.561
LAMA1 log2FoldChange: 4.927
LANCL3 log2FoldChange: 2.567
LGI3 log2FoldChange: 4.02
LGI4 log2FoldChange: 3.612
LHX6 log2FoldChange: 2.492
LINGO1 log2FoldChange: 3.184
LMX1B log2FoldChange: 4.789
LRAT log2FoldChange: 2.695
LRRC4B log2FoldChange: 6.224
LRRC63 log2FoldChange: 3.034
LTK log2FoldChange: 2.536
LUM log2FoldChange: 2.768
MACC1 log2FoldChange: 2.159
MAGEC1 log2FoldChange: 3.487
MAK log2FoldChange: 2.409
MDFI log2FoldChange: 3.485
MEFV log2FoldChange: 4.614
MEGF11 log2FoldChange: 3.91
MGAT3 log2FoldChange: 4.144
MME log2FoldChange: 2.372
MORN3 log2FoldChange: 2.131
MPP7 log2FoldChange: 2.694
MRO log2FoldChange: 3.525
MT3 log2FoldChange: 2.775
MYEOV log2FoldChange: 3.238
MYO1D log2FoldChange: 2.853
MYOZ2 log2FoldChange: 6.009
NALF2 log2FoldChange: 4.418
NAT16 log2FoldChange: 3.0286
NCALD log2FoldChange: 2.788
NCAN log2FoldChange: 5.945
NCCRP1 log2FoldChange: 5.22
NECTIN4 log2FoldChange: 2.229
NFASC log2FoldChange: 2.355
NFATC4 log2FoldChange: 2.3144
NFIA log2FoldChange: 2.067
NKD1 log2FoldChange: 3.284
NKX1-2 log2FoldChange: 2.899
NLRP1 log2FoldChange: 3.5059
NME5 log2FoldChange: 2.6336
NPY2R log2FoldChange: 3.759
NSG1 log2FoldChange: 5.809
NTNG2 log2FoldChange: 2.905
NXPH3 log2FoldChange: 2.7857
OLFM2 log2FoldChange: 3.458
OLIG2 log2FoldChange: 6.361
OTOGL log2FoldChange: 4.502
PALM3 log2FoldChange: 2.0048
